According to the RepoRT retention time repository:

Test: HILIC, Waters ACQUITY UPLC BEH Amide, 100 × 2.1 mm, 1.7 µm; A: water + 0.125% formic acid + 10 mM ammonium formate; B: 5% water + 95% acetonitrile + 0.125% formic acid + 10 mM ammonium formate; gradient (min/%B) 0/100 2/100 7.7/70 9.5/40 10.25/30 12.75/100 17/100
Details: stereoisomer not certain

Compound	LC retention time
COC(=O)CN [Methylglycinate]	5.29 min
CC12CCC(=O)C=C1CCC1C2CCC2(C)C1CCC2(C)O (centres undefined) [Methyltestosterone]	1.04 min
CNC(Cc1ccc(O)cc1)C(=O)[O-] (centres undefined) [Methyltyrosinate]	4.23 min
CCC1(CC)C(=O)NCC(C)C1=O (centres undefined) [Methyprylon]	1.18 min
Cc1ncc([N+](=O)[O-])n1CCO [Metronidazole]	1.17 min
CCC(C)C(=O)OC1CCC=C2C=CC(C)C(CCC3CC(O)CC(=O)O3)C21 (centres undefined) [Mevastatin]	0.99 min
Cc1ncc2n1-c1ccc(Cl)cc1C(c1ccccc1F)=NC2 [Midazolam]	1.29 min
CC#CC1(O)CCC2C3CCC4=CC(=O)CCC4=C3C(c3ccc(N(C)C)cc3)CC21C (centres undefined) [Mifepristone]	1 min
OCCN1CC(O)C(O)C(O)C1CO (centres undefined) [Miglitol]	8.12 min
CCN(CC)C(=O)C1(c2ccccc2)CC1CN (centres undefined) [Milnacipran]	3.23 min
Cc1[nH]c(=O)c(C#N)cc1-c1ccncc1 [Milrinone]	1.6 min
CN1CCN2c3ncccc3Cc3ccccc3C2C1 (centres undefined) [Mirtazapine]	3.08 min
O=C(NCCN1CCOCC1)c1ccc(Cl)cc1 [Moclobemide]	2.03 min
NC(=O)CS(=O)C(c1ccccc1)c1ccccc1 (centres undefined) [Modafinil]	1.27 min
CCCCCCCCC=CCCCCCCCC(=O)OCC(O)CO (centres undefined) [Monoolein]	1.19 min
CCOc1cc(N)c(Cl)cc1C(=O)NCC1CN(Cc2ccc(F)cc2)CCO1 (centres undefined) [Mosapride]	1.24 min
COc1c(N2CC3CCCNC3C2)c(F)cc2c(=O)c(C(=O)O)cn(C3CC3)c12 (centres undefined) [Moxifloxacin]	4.69 min
COc1nc(C)nc(Cl)c1NC1=NCCN1 [Moxonidine]	3.28 min
CC(OC1C(N)C(O)OC(CO)C1O)C(=O)O (centres undefined) [Muramic acid]	8.28 min
CN(C)c1nc2c(ncn2C2OC(CO)C(O)C2O)c(=O)[nH]1 (centres undefined) [N2,N2-Dimethylguanosine]	5.62 min
CNc1nc2c(ncn2C2OC(CO)C(O)C2O)c(=O)[nH]1 (centres undefined) [N2-Methylguanosine]	6.4 min
CC(C)=CCNc1ncnc2c1ncn2C1OC(CO)C(O)C1O (centres undefined) [N6-Isopentenyladenosine]	1.48 min
CC(=O)NCCCCNCCCN [N8-Acetylspermidine]	8.87 min
CN(C)C(CCCN=C(N)N)C(=O)O (centres undefined) [N,N-Dimethylarginine]	9.1 min

Compound	LC retention time
CN(C)C=O [N,N-Dimethylformamide]	1.29 min
CN(C)CC(=O)O [N,N-Dimethylglycine]	7.4 min
CC(=O)Nc1ccc2c(c1)Cc1ccccc1-2 [N-2-Fluorenylacetamide]	4.74 min
OCC1OC(n2cnc3c(NC4CCCC4O)ncnc32)C(O)C1O (centres undefined) [N-2-Hydroxycyclopentyladenosine]	3.48 min
O=C(O)CNC(=O)c1ccco1 [N-(2-Furoyl)glycine]	4.01 min
CC(=O)NC(CCCN=C(N)N)C(=O)O [N-.alpha.-Acetyl-L-arginine]	8.16 min
CC(=O)NCCc1c[nH]c2ccc(O)cc12 [N-Acetyl-5-hydroxytryptamine]	1.43 min
CC(=O)NC(CC(=O)O)C(=O)NC(CCC(=O)O)C(=O)O (centres undefined) [N-Acetyl-Asp-Glu]	8.11 min
CC(=O)NCCC(=O)NC(Cc1cnc[nH]1)C(=O)O [N-Acetyl-L-carnosine]	8.35 min
CC(=O)N[C@@H](CCC(N)=O)C(=O)O [N-Acetyl-L-glutamine]	8.18 min
CC(=O)NC(C)C(=O)O (centres undefined) [N-Acetylalanine]	4.83 min
CC(=O)N1CCCCCC1=O [N-Acetylcaprolactam]	2.3 min
CC(=O)NC(CS)C(=O)O (centres undefined) [N-Acetylcysteine]	5.28 min
CC(=O)Nc1ccn(C2OC(CO)C(O)C2O)c(=O)n1 (centres undefined) [N-Acetylcytidine]	5.08 min
CC(=O)NC(CCC(=O)O)C(=O)O (centres undefined) [N-Acetylglutamic acid]	7.67 min
CC(=O)NC(Cc1cnc[nH]1)C(=O)O (centres undefined) [N-Acetylhistidine]	8.07 min
CC(=O)NC(CC(C)C)C(=O)O (centres undefined) [N-Acetylleucine]	2.29 min
CC(=O)NC1C(O)OC(CO)C(O)C1O (centres undefined) [N-Acetylmannosamine]	7.01 min
CSCCC(NC(C)=O)C(=O)O (centres undefined) [N-Acetylmethionine]	3.23 min
CC(=O)NC1C(O)CC(O)(C(=O)O)OC1C(O)C(O)CO (centres undefined) [N-Acetylneuraminic acid]	9.26 min
CC(=O)NC(Cc1ccccc1)C(=O)O (centres undefined) [N-Acetylphenylalanine]	2.61 min
CC(=O)NC(CO)C(=O)O (centres undefined) [N-Acetylserine]	7.67 min
CC(=O)NC(Cc1c[nH]c2ccccc12)C(=O)O (centres undefined) [N-Acetyltryptophan]	2.81 min
O=C(O)CNC(=O)OCc1ccccc1 [N-Benzyloxycarbonylglycine]	7.67 min

Compound	LC retention time
CC(C)CC(NC(=O)OCc1ccccc1)C(=O)O (centres undefined) [N-Carbobenzyloxyleucine]	1.28 min
O=C(O)CNC(=O)C=Cc1ccccc1 [N-Cinnamoylglycine]	2.95 min
O=CNC1CCCCC1 [N-Cyclohexylformamide]	1.2 min
CSCCC(NC=O)C(=O)O (centres undefined) [N-Formylmethionine]	3.93 min
CC(C)C(=O)NCC(=O)O [N-Isobutyrylglycine]	3.6 min
CC(C)CC(=O)NCC(=O)O [N-Isovalerylglycine]	2.94 min
CNC(C)C(=O)O (centres undefined) [N-Methylalanine]	7.67 min
CNc1ccccc1 [N-Methylaniline]	1.06 min
CNc1ccccc1C(=O)O [N-Methylanthranilic acid]	1.22 min
CNC(CC(=O)O)C(=O)O (centres undefined) [N-Methylaspartic acid]	2.53 min
CCC(C)C(NC)C(=O)O (centres undefined) [N-Methylisoleucine]	6.44 min
CNC(CC(C)C)C(=O)O (centres undefined) [N-Methylleucine]	6.45 min
CNCCCCC(N)C(=O)O (centres undefined) [N-Methyllysine]	9.36 min
CN1CCC(c2ccc(F)cc2)C(COc2ccc3c(c2)OCO3)C1 (centres undefined) [N-Methylparoxetine]	2.2 min
CNC(Cc1ccccc1)C(=O)O (centres undefined) [N-Methylphenylalanine]	6.22 min
CN1CCCC1C(=O)O (centres undefined) [N-Methylproline]	7.11 min
CNC(C(=O)O)C(C)O (centres undefined) [N-Methylthreonine]	7.68 min
CNC(Cc1ccc(O)cc1)C(=O)O (centres undefined) [N-Methyltyrosine]	6.79 min
CNC(C(=O)O)C(C)C (centres undefined) [N-Methylvaline]	6.99 min
CC(=O)NC(CCCN)C(=O)O [N-alpha-Acetyl-L-ornithine]	8.31 min
CNCCc1cnc[nH]1 [N-alpha-methylhistamine]	7.48 min
CC(=O)NCCCCC(N)C(=O)O (centres undefined) [N-epsilon-Acetyllysine]	8.03 min
COc1ccc(NC=O)c(C(=O)CCNC(C)=O)c1 [N-gamma-Acetyl-N-2-formyl-5-methoxykynurenamine]	1.32 min
CC(=O)NCCc1cnc[nH]1 [N-omega-Acetylhistamine]	6 min

Compound	LC retention time
CC(=O)N[C@@H](CCCCN)C(=O)O [N.alpha.-Acetyl-L-lysine]	8.15 min
CN[C@@H](CCCCN)C(=O)O [N.alpha.-Methyl-L-lysine]	7.35 min
C[N+](C)(C)CCCCC(N)C(=O)[O-] (centres undefined) [NEPSILON,NEPSILON,NEPSILON-TRIMETHYLLYSINE]	9.29 min
CCCCN1CCCC1CNC(=O)c1cc(C#N)c2ccccc2c1OC (centres undefined) [Nafadotride]	2.05 min
COc1ccccc1N1CCN(CC(O)COc2cccc3ccccc23)CC1 (centres undefined) [Naftopidil]	1.99 min
Oc1ccc2c3c1OC1C(O)CCC4(O)C(C2)N(CC2CCC2)CCC314 (centres undefined) [Nalbuphine]	5.25 min
Oc1ccc2c3c1OC1c4[nH]c5ccccc5c4CC4(O)C(C2)N(CC2CC2)CCC314 (centres undefined) [Naltrindole]	4.45 min
CC12CCC3C4CCC(=O)C=C4CCC3C1CCC2O (centres undefined) [Nandrolone]	1.06 min
CC1OC(OC2C(Oc3cc(O)c4c(c3)OC(c3ccc(O)cc3)CC4=O)OC(CO)C(O)C2O)C(O)C(O)C1O (centres undefined) [Naringin]	5.61 min
CC(C)C1CCC(C(=O)NC(Cc2ccccc2)C(=O)O)CC1 (centres undefined) [Nateglinide]	1.3 min
CCc1nn(CCCN2CCN(c3cccc(Cl)c3)CC2)c(=O)n1CCOc1ccccc1 [Nefazodone]	1.88 min
Cc1c(O)cccc1C(=O)NC(CSc1ccccc1)C(O)CN1CC2CCCCC2CC1C(=O)NC(C)(C)C (centres undefined) [Nelfinavir]	1.55 min
CC(=O)OCC=C(C)CCC=C(C)C [Nerylacetate]	0.99 min
O=C(CCNNC(=O)c1ccncc1)NCc1ccccc1 [Nialamide]	1.69 min
O=C(NCCO[N+](=O)[O-])c1cccnc1 [Nicorandil]	1.11 min
NC(=O)c1ccc[n+](C2OC(CO)C(O)C2O)c1 (centres undefined) [Nicotinamide riboside cation]	7.51 min
NC(=O)c1cccnc1 [Nicotinamide]	1.7 min
CN1CCCC1c1cccnc1 (centres undefined) [Nicotine]	5.34 min
O=C(O)c1cccnc1 [Nicotinic acid]	4.01 min
O=C(O)CNC(=O)c1cccnc1 [Nicotinoylglycine]	7.08 min
COC(=O)C1=C(C)NC(C)=C(C(=O)OC)C1c1ccccc1[N+](=O)[O-] [Nifedipine]	1.02 min
Cn1c(NCCN(CCO)CCCc2ccc([N+](=O)[O-])cc2)cc(=O)n(C)c1=O [Nifekalant]	3.21 min
